# Laboratory results published in US20240287046A1, “COMPOUNDS AND RADIOLIGANDS FOR TARGETING NEUROTENSIN RECEPTOR AND USES THEREOF” (Full-Life Technologies HK Limited, priority 2022, published 2024).
# Tested on: ASPC-1 tumor
# Test: In vivo efficacy of ^225Ac therapy
# Details: ASPC-1 tumor-bearing mice
# Procedure: In vivo efficacy of the ^177Lu labeled complexes and ^225Ac labeled complexes of the present application was evaluated in ASPC-1 tumor-bearing mice. For ^177Lu therapy study, animals in each group were dosed with vehicle or 0.6 mCi activity of the radiolabeled complexes at Day 1 and Day 5, respectively. For ^225Ac therapy studies, animals in each group were administered with a single dose of vehicle, 18, 37 or 74 KBq activity of the radiolabeled complexes, respectively.
# The tumor volume (V) was determined according to the equation (V=[…]×L×W×H) at different time points, where L is the longest axis and W is the perpendicular axis to L, and H is the perpendicular axis to L and W plane. Endpoint (sacrifice) criteria were defined as either when the tumor volume exceeded 1.5 cm^3, or 20% body weight loss.
structure (smiles),measurement,setting,value
COc1cccc(OC)c1-c1cc(C(=O)NC2(C(=O)O)C3CC4CC(C3)CC2C4)nn1-c1ccc(OCCCN(C)CCCN(C)C(=O)CN2CCN(CC(=O)[O-])CCN(CC(=O)[O-])CCN(CC(=O)[O-])CC2)cc1C(C)C.[225Ac+3] (centres unmarked) [^225Ac—I-7],tumor inhibition compared to the vehicle group,"single dose of 18, 37 or 74 KBq",significant tumor inhibition
same,dose sufficient to achieve the maximal effect,single dose,37 KBq
